Entries after “also recorded” stand apart in the source; their conditions may differ.
Legend:
Format in all cases: binding
TrkA [1] = target: T1, TrkA (Homo sapiens, UniProt P04629); experiment: KINOMEscan primary screen against TrkA; details: % of control; for % Ctrl. TrkA @10 nM: 10 nM compound; for % Ctrl. TrkA @100 nM: 100 nM compound
Protocol: (§1) Compounds were initially tested in a primary screen against TrkA (at 10 and 100 nM) and AurA (at 100 nM and 1 μM) using the KINOMEscan technology from DiscoverX Corporation, Fremont, Calif., USA (https://www.discoverx.com/services/drug-discovery-development-services/kinase-profiling/kinomescan).
Results were reported as % of control (% Ctrl.=(test compound signal−positive control signal)/(DMSO signal−positive control signal). KINOMEscan is an active site-directed competition binding assay that quantitatively measures the ability of a compound to compete with an immobilized, active-site directed ligand.

AurA [2] = target: T2, AurA (Homo sapiens, UniProt O14965); experiment: KINOMEscan primary screen against AurA; details: % of control; for % Ctrl. AurA @100 nM: 100 nM compound; for % Ctrl. AurA @1 μM: 1 μM compound
T2 sequence (O14965 1-403): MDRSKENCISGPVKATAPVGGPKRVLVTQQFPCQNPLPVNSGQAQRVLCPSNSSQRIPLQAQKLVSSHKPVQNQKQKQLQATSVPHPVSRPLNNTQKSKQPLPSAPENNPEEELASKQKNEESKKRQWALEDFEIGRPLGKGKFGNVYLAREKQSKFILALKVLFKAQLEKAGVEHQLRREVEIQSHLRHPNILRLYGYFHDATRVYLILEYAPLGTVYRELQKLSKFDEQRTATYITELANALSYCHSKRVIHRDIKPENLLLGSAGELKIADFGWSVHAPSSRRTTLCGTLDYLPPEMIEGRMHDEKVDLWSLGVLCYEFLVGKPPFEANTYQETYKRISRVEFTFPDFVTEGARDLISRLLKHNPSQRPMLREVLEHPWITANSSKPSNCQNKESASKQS
Protocol: as §1

panel of 97 kinases = experiment: Selectivity profiling, scanEDGE kinase panel (KINOMEscan); details: 100 nM, cut-off <35% ctrl; for # Hits: N = 92 non-mutant kinases; for Selectivity Score: inhibited kinases/tested kinases
Protocol: Selectivity profiling was done over a panel of 97 kinases at 100 nM concentration (scanEDGE assay panel from Discover X, which also uses the KINOMEscan technology, whereat KIT(D816V) and KIT (V559D, T6701) were replaced by TrkB and TrkC). […] The employed profiling panel consisted of the following kinases: ABL1(T3151)-phosphorylated, ABL1-nonphosphorylated, ABL1-phosphorylated, ACVR1B, ADCK3, AKT1, AKT2, ALK, AURKA, AURKB, AXL, BMPR2, BRAF, BRAF (V600E), BTK, CDK11, CDK2, CDK3, CDK7, CDK9, CHEK1, CSF1R, CSNK1D, CSNK1G2, DCAMKL1, DYRK1B, EGFR, EGFR (L858R), EPHA2, ERBB2, ERBB4, ERK1, FAK, FGFR2, FGFR3, FLT3, GSK3B, IGF1R, IKK-alpha, IKK-beta, INSR, JAK2 (JH1domain-catalytic), JAK3 (JH1domain-catalytic), JNK1, JNK2, JNK3, KIT, LKB1, MAP3K4, MAPKAPK2, MARK3, MEK1, MEK2, MET, MKNK1, MKNK2, MLK1, p38-alpha, p38-beta, PAK1, PAK2, PAK4, PCTK1, PDGFRA, PDGFRB, PDPK1, PIK3C2B, PIK3CA, PIK3CG, PIM1, PIM2, PIM3, PKAC-alpha, PLK1, PLK3, PLK4, PRKCE, RAF1, RET, RIOK2, ROCK2, RSK2 (Kin. Dom. 1-N-terminal), SNARK, SRC, SRPK3, TGFBR1, TIE2, TRKA, TRKB, TRKC, TSSK1B, TYK2 (JH1domain-catalytic), ULK2, VEGFR2, YANK3, ZAP70

TrkA [3] = experiment: KdELECT Kd measurement (KINOMEscan), TrkA; details: for ΔpKd: TrkA pKd versus AurA pKd
Protocol: (§2) Kd measurements were done via the KdELECT product service from DiscoverX Corporation (Freemont, Calif., USA) which also employs the KINOMEscan technology. Here, inhibitor binding constants (Kd values) are calculated from duplicate 11-point dose-response curves.

TrkA [4] = target: T1, TrkA; experiment: KdELECT Kd measurement (KINOMEscan), TrkA; details: for Kd: duplicate 11-point dose-response curves
Protocol: as §2

AurA [5] = target: T2, AurA; experiment: KdELECT Kd measurement (KINOMEscan), AurA; details: for Kd: duplicate 11-point dose-response curves
Protocol: as §2

T1 sequence (P04629 33-796): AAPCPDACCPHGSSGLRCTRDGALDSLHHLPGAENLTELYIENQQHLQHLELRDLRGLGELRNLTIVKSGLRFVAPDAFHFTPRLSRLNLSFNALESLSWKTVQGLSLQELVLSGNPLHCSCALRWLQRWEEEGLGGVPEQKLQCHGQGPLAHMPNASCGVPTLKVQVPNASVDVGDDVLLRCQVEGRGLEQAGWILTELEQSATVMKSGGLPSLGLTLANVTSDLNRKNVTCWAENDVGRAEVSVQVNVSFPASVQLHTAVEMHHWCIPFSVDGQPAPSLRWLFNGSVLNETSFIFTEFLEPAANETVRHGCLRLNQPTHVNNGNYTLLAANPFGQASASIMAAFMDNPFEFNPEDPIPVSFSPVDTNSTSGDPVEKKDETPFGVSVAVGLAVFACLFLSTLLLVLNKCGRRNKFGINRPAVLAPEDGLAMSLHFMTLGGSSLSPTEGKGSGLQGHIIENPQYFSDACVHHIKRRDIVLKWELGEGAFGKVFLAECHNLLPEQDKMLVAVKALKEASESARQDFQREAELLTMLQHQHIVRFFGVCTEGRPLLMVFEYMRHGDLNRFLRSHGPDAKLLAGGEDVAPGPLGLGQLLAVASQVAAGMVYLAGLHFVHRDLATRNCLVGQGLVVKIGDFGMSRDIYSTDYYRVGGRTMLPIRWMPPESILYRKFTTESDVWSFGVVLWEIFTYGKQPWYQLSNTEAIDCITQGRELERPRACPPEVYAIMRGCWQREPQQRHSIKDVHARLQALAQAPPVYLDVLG

## Cc1cc(Nc2cc(N3CCN(C)CC3)nc(Sc3cccc(C(F)(F)F)c3)n2)n[nH]1 [b5, N-(5-methyl-1H-pyrazol-3-yl)-6-(4-methylpiperazin-1-yl)-2-{[3-(trifluoromethyl)phenyl]sulfanyl}pyrimidin-4-amine]
TrkA [1]
  % Ctrl. TrkA @10 nM: 90 % Ctrl.
  % Ctrl. TrkA @100 nM: 32 % Ctrl.
AurA [2]
  % Ctrl. AurA @100 nM: 36 % Ctrl.
  % Ctrl. AurA @1 μM: 2.4 % Ctrl.

## Cc1ccc(C)c(CSc2nc(Nc3cc(C)[nH]n3)cc(N3CCN(C)CC3)n2)c1 [b2, 2-{[(2,5-dimethylphenyl)methyl]sulfanyl}-N-(5-methyl-1H-pyrazol-3-yl)-6-(4-methylpiperazin-1-yl)pyrimidin-4-amine]
TrkA [1]
  % Ctrl. TrkA @10 nM: 93 % Ctrl.
  % Ctrl. TrkA @100 nM: 31 % Ctrl.
AurA [2]
  % Ctrl. AurA @100 nM: 54 % Ctrl.
  % Ctrl. AurA @1 μM: 9.4 % Ctrl.

## Cc1cc(Nc2cc(N3CCN(C)CC3)nc(SCc3cccc4ccccc34)n2)n[nH]1 [b6, N-(5-methyl-1H-pyrazol-3-yl)-6-(4-methylpiperazin-1-yl)-2-[(naphthalen-1-ylmethyl)sulfanyl]pyrimidin-4-amine]
TrkA [1]
  % Ctrl. TrkA @10 nM: 74 % Ctrl.
  % Ctrl. TrkA @100 nM: 35 % Ctrl.
AurA [2]
  % Ctrl. AurA @100 nM: 63 % Ctrl.
  % Ctrl. AurA @1 μM: 7.4 % Ctrl.

## Cc1cccc(Sc2nc(Nc3cc(C)[nH]n3)cc(N3CCN(C)CC3)n2)c1 [b4, N-(5-methyl-1H-pyrazol-3-yl)-2-[(3-methylphenyl)sulfanyl]-6-(4-methylpiperazin-1-yl)pyrimidin-4-amine]
TrkA [1]
  % Ctrl. TrkA @10 nM: 50 % Ctrl.
  % Ctrl. TrkA @100 nM: 6.7 % Ctrl.
AurA [2]
  % Ctrl. AurA @100 nM: 2.6 % Ctrl.
  % Ctrl. AurA @1 μM: 0.1 % Ctrl.

## CN1CCN(c2cc(Nc3cc(C(C)(C)C)[nH]n3)nc(Sc3ccccc3)n2)CC1 [a8, N-(5-tert-butyl-1H-pyrazol-3-yl)-6-(4-methylpiperazin-1-yl)-2-(phenylsulfanyl) pyrimidin-4-amine]
TrkA [1]
  % Ctrl. TrkA @10 nM: 69 % Ctrl.
  % Ctrl. TrkA @100 nM: 18 % Ctrl.
AurA [2]
  % Ctrl. AurA @100 nM: 100 % Ctrl.
  % Ctrl. AurA @1 μM: 79 % Ctrl.

## CN1CCN(c2cc(Nc3cc4ccccn4n3)nc(Sc3ccccc3)n2)CC1 [a3, 6-(4-methylpiperazin-1-yl)-2-(phenylsulfanyl)-N-(pyrazolo[1,5-a]pyridin-2-yl)pyrimidin-4-amine]
TrkA [1]
  % Ctrl. TrkA @10 nM: 93 % Ctrl.
  % Ctrl. TrkA @100 nM: 29 % Ctrl.
AurA [2]
  % Ctrl. AurA @100 nM: 87 % Ctrl.
  % Ctrl. AurA @1 μM: 76 % Ctrl.

## Cc1ccc(C)c(Sc2nc(Nc3cc(C)[nH]n3)cc(N3CCN(C)CC3)n2)c1 [b1, 2-[(2,5-dimethylphenyl)sulfanyl]-N-(5-methyl-1H-pyrazol-3-yl)-6-(4-methylpiperazin-1-yl)pyrimidin-4-amine]
TrkA [1]
  % Ctrl. TrkA @10 nM: 80 % Ctrl.
  % Ctrl. TrkA @100 nM: 11 % Ctrl.
AurA [2]
  % Ctrl. AurA @100 nM: 7.3 % Ctrl.
  % Ctrl. AurA @1 μM: 0.5 % Ctrl.

## CN1CCN(c2cc(Nc3cc(C4CCCC4)[nH]n3)nc(Sc3ccccc3)n2)CC1 [a4, N-(5-cyclopentyl-1H-pyrazol-3-yl)-6-(4-methylpiperazin-1-yl)-2-(phenylsulfanyl)pyrimidin-4-amine]
Panel of 97 kinases
  # Hits: 19
  List of inhibited kinases: TrkA, TrkB, TrkC, ABL1, AurA,; also recorded: AXL, FGFR2, FGFR3, FLT3, FMS,; also recorded: INSR, JAK2, JAK3, KIT, MAP2K2,; also recorded: MET, PDGFRb, RET, SRC
  Selectivity Score: 0.207
TrkA [1]
  % Ctrl. TrkA @10 nM: 15 % Ctrl.
  % Ctrl. TrkA @100 nM: 0.95 % Ctrl.
AurA [2]
  % Ctrl. AurA @100 nM: 49 % Ctrl.
  % Ctrl. AurA @1 μM: 4.5 % Ctrl.
TrkA [3]
  ΔpKd: 1.8
TrkA [4]
  TrkA [pKd]: 8.8
  Kd: 0.0015 µM
AurA [5]
  AurA [pKd]: 7.0
  Kd: 0.093 µM

## Cc1cc(Nc2cc(N3CCN(C)CC3)nc(Sc3ccc(NC(=O)C4CC4)cc3)n2)n[nH]1 [Tozasertib, N-[4-({4-[(5-methyl-1H-pyrazol-3-yl)amino]-6-(4-methylpiperazin-1-yl)pyrimidin-2-yl}sulfanyl)phenyl]cyclopropanecarboxamide, reference compound]
Panel of 97 kinases
  # Hits: 10
  List of inhibited kinases: TrkA, ABL1, AurA, AurB, AXL,; also recorded: CK1d, FLT3, JAK2, PLK4, RET
TrkA [1]
  % Ctrl. TrkA @10 nM: 31 % Ctrl.
  % Ctrl. TrkA @100 nM: 5.2 % Ctrl.

## Cc1cc(Nc2cc(N3CCN(C)CC3)nc(SCc3ccc(C)c(C)c3)n2)n[nH]1 [b3, 2-{[(3,4-dimethylphenyl)methyl]sulfanyl}-N-(5-methyl-1H-pyrazol-3-yl)-6-(4-methylpiperazin-1-yl)pyrimidin-4-amine]
TrkA [1]
  % Ctrl. TrkA @10 nM: 53 % Ctrl.
  % Ctrl. TrkA @100 nM: 11 % Ctrl.
AurA [2]
  % Ctrl. AurA @100 nM: 46 % Ctrl.
  % Ctrl. AurA @1 μM: 4.5 % Ctrl.

## Cc1ccc(Sc2nc(Nc3cc(C)[nH]n3)cc(N3CCN(C)CC3)n2)c(C)c1 [b9, 2-[(2,4-dimethylphenyl)sulfanyl]-N-(5-methyl-1H-pyrazol-3-yl)-6-(4-methylpiperazin-1-yl)pyrimidin-4-amine]
TrkA [1]
  % Ctrl. TrkA @10 nM: 77 % Ctrl.
  % Ctrl. TrkA @100 nM: 24 % Ctrl.
AurA [2]
  % Ctrl. AurA @100 nM: 51 % Ctrl.
  % Ctrl. AurA @1 μM: 3.8 % Ctrl.

## Cc1cc(Nc2cc(N3CCN(C)CC3)nc(Sc3ccccc3)n2)n[nH]1 [Reference 2, N-(5-methyl-1H-pyrazol-3-yl)-6-(4-methylpiperazin-1-yl)-2-(phenylsulfanyl)-pyrimidin-4-amine, reference compound]
TrkA [1]
  % Ctrl. TrkA @10 nM: 58 % Ctrl.
  % Ctrl. TrkA @100 nM: 10 % Ctrl.
AurA [2]
  % Ctrl. AurA @100 nM: 15 % Ctrl.
  % Ctrl. AurA @1 μM: 0.95 % Ctrl.
TrkA [3]
  ΔpKd: 0.1
TrkA [3]; compared to tozasertib
  ΔΔpKd (selectivity towards AurA compared to tozasertib): 1
TrkA [4]
  TrkA [pKd]: 7.5
  Kd: 0.03 µM
AurA [5]
  AurA [pKd]: 7.4
  Kd: 0.041 µM

## Cc1ccc(CSc2nc(Nc3cc(C)[nH]n3)cc(N3CCN(C)CC3)n2)cc1 [b8, N-(5-methyl-1H-pyrazol-3-yl)-2-{[(4-methylphenyl)methyl]sulfanyl}-6-(4-methylpiperazin-1-yl)pyrimidin-4-amine]
Panel of 97 kinases
  # Hits: 17
  List of inhibited kinases: TrkA, TrkB, TrkC, ABL1, AurA, and AXL, BTK, FGFR3, FLT3, JAK2, and JAK3, KDR, KIT, PLK4, RET, SRC, and TYK2
  Selectivity Score: 0.185
TrkA [1]
  % Ctrl. TrkA @10 nM: 35 % Ctrl.
  % Ctrl. TrkA @100 nM: 5.3 % Ctrl.
AurA [2]
  % Ctrl. AurA @100 nM: 30 % Ctrl.
  % Ctrl. AurA @1 μM: 1.3 % Ctrl.
TrkA [3]
  ΔpKd: 1.1
TrkA [4]
  TrkA [pKd]: 8.4
  Kd: 0.0038 µM
AurA [5]
  AurA [pKd]: 7.3
  Kd: 0.053 µM

Reference: patent US20200399250A1, “Pyrimidine Derivatives as Tropomyosin Receptor Kinase A (TRKA) Inhibitors” (BIOMED X GMBH, priority 2017, published 2020)
